In patent publication US20060035810A1, “Regulation of ins(3456)p4 signalling by a reversible kinase phosphatase and methods and compositions related thereto” (priority 2002, published 2006):

Key:
[1] = test system: insulin granules in pancreatic β-cells; assay: Insulin granule acidification, LSG fluorescence with patch-clamp and confocal imaging; assay type: cell-based, mouse; details: DIDS 100 μM in bath solution 30 min prior to patching
Method: FIG. 6. Ins(3,4,5,6)P4 inhibits acidification of insulin granules in pancreatic β-cells. FIG. 6A, Representative time-courses for intragranular acidification, monitored by increased fluorescence of LSG before and after establishment of the standard whole-cell configuration (see arrow) and the effect of perfusion of intracellular medium (containing 0.4 μM [Ca^2+]free except where “no calcium” is indicated; see Methods) plus either 0 (“control”), 1 or 10 μM Ins(3,4,5,6)P4. FIG. 6B, Mean (±SE) fluorescence changes (n-5-11), during the 60 s that followed establishment of the standard whole-cell configuration, for cells perfused with inositol phosphates as indicated at the base of the bar graph. Where indicated, DIDS (100 μM) were added to the bath solution 30 min prior to patching the cells. Statistical significance was evaluated by Student's unpaired t-test (* P<0.01).
The inositol phosphates used in this study were all purchased from CellSignals Inc (Lexington, Ky.). Insulin granule pH were monitored by combining the patch-clamp technique with confocal imaging. Pancreatic β-cells, isolated and cultured on glass coverslips for 2-24 h, were voltage clamped at −70 mV, as previously described (B9). LysoSensor-Green™ DND-189 (1 μM; Molecular Probes, Leiden, The Netherlands) was added during the last 30 min of cell culture and was also included in the extracellular buffer (B9) that continuously perfused the experimental chamber. All LSG experiments were performed at 20° C. to prevent exocytosis that otherwise interfered with the optical measurements (15). LSG fluorescence was excited using the 488 nm-line of a Zeiss 510 confocal microscope. The emitted light was collected with a 63×/1.3 NA oil objective and a >505 nm filter. Laser scanning was performed with low pixel resolution (128×128) and with 6 s intervals to minimize photo-bleaching. After gigaseal formation, it was ascertained that LSG fluorescence was stable for at least 30 s before the experiment commenced. The intracellular electrode solution contained: 125 mM K-glutamate, 10 mM KCl, 1 0 mM NaCl, 1 mM MgCl2, 5 mM HEPES, 3 mM Mg-ATP, 0.1 mM cAMP, 10 mM EGTA and 7 mM CaCl2 (˜0.4 μM free [Ca^2+]I; pH 7.2 with KOH). In some experiments, marked “no calcium”, there was no added Ca^2+, and the concentration of EGTA was 50 μM. Whole-cell capacitance measurements (at 33° C.) were made with the cells clamped at −70 mV, and the standard whole-cell configuration was established at t=0. Capacitance recordings were made using an EPC-7 patch-clamp amplifier equipped with the software Pulse (version 8.4 and later) and the X-chart extension (HEKA Elektronik, Lambrecht/Pfalz, Germany) (B9).

[2] = test system: insulin granules in pancreatic β-cells; assay: CCCP-mediated de-acidification of insulin granules, LSG fluorescence; assay type: cell-based, mouse; details: DIDS blockade of Cl− conductance, CCCP
Method: FIG. 7A, Representative confocal images of LSG fluorescence immediately before (zero) and 60 s after perfusion of cells with intracellular buffer supplemented with 100 μM of the protonophore, CCCP, in the absence or presence of 10 μM Ins(3,4,5,6)P4. FIG. 7B, Representative time-courses for changes in LSG-fluorescence ([F/F0] as % of zero time) immediately after establishing a standard whole-cell configuration as in panel A, with intracellular medium (containing 0.4 μM [Ca^2+]free except where “no calcium” is indicated; see Methods) plus 100 μM CCCP, together with either 0 (“control”) or 10 μM Ins(3,4,5,6)P4. FIG. 7C, Mean (±SE) fluorescence changes (n=4-6), during the 60 s that followed establishment of the standard whole-cell configuration, for cells perfused with intracellular medium supplemented with inositol phosphates as indicated at the base of the bar graph ([…]).
The inositol phosphates used in this study were all purchased from CellSignals Inc (Lexington, Ky.). Insulin granule pH were monitored by combining the patch-clamp technique with confocal imaging. Pancreatic β-cells, isolated and cultured on glass coverslips for 2-24 h, were voltage clamped at −70 mV, as previously described (B9). LysoSensor-Green™ DND-189 (1 μM; Molecular Probes, Leiden, The Netherlands) was added during the last 30 min of cell culture and was also included in the extracellular buffer (B9) that continuously perfused the experimental chamber. All LSG experiments were performed at 20° C. to prevent exocytosis that otherwise interfered with the optical measurements (15). LSG fluorescence was excited using the 488 nm-line of a Zeiss 510 confocal microscope. The emitted light was collected with a 63×/1.3 NA oil objective and a >505 nm filter. Laser scanning was performed with low pixel resolution (128×128) and with 6 s intervals to minimize photo-bleaching. After gigaseal formation, it was ascertained that LSG fluorescence was stable for at least 30 s before the experiment commenced. The intracellular electrode solution contained: 125 mM K-glutamate, 10 mM KCl, 1 0 mM NaCl, 1 mM MgCl2, 5 mM HEPES, 3 mM Mg-ATP, 0.1 mM cAMP, 10 mM EGTA and 7 mM CaCl2 (˜0.4 μM free [Ca^2+]I; pH 7.2 with KOH). In some experiments, marked “no calcium”, there was no added Ca^2+, and the concentration of EGTA was 50 μM. Whole-cell capacitance measurements (at 33° C.) were made with the cells clamped at −70 mV, and the standard whole-cell configuration was established at t=0. Capacitance recordings were made using an EPC-7 patch-clamp amplifier equipped with the software Pulse (version 8.4 and later) and the X-chart extension (HEKA Elektronik, Lambrecht/Pfalz, Germany) (B9). […]

[3] = molecular target: T1, Recombinant human Ins(3,4,5,6)P4 1-kinase (Homo sapiens, UniProt Q13572); assay: Inositol phosphate kinase activity assay (HPLC); assay type: biochemical
T1 construct: made in house; host or cells: E. coli
T1 sequence (Q13572 1-414): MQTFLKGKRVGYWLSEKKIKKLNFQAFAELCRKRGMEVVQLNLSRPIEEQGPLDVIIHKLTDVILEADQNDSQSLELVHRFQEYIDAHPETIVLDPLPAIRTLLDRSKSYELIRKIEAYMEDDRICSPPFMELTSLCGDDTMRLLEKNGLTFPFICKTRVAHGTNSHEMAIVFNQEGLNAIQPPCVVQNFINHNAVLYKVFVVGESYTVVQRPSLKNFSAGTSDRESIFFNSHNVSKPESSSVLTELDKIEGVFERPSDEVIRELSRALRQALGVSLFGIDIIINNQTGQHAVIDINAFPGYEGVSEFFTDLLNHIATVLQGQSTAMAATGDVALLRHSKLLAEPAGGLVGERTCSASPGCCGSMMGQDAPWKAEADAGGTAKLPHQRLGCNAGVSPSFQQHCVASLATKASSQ
Method: (§1) Inositol phosphate phosphatase activity was assayed in buffer containing 100 mM KCl, 20 mM HEPES pH 7.2, 5 mM ADP, 6 mM MgSO4, 0.3 mg/ml bovine serum albumin. Assays were acid-quenched, neutralized and analyzed by HPLC using a Synchropak Q100 columm (Caffrey et al., “Expanding Coincident Signaling by PTEN through its Inositol 1,3,4,5,6-Pentakisphosphate 3-phosphatase Activity,” FEBS Lett 499: 6-10 (2001)); 1 ml fractions were collected for 70 min., followed by 0.5 ml fractions. Inositol phosphate kinase activity was assayed in buffer containing 100 mM KCl, 20 mM HEPES pH 7.2, 5 mM ATP, 10 mM phosphocreatine, 6 mM MgSO4, 10 μg/ml creatine phosphokinase (Calbiochem), 0.3 mg/ml bovine serum albumin. Some assays were acid-quenched and analyzed by HPLC using a Synchropak Q100 column. Other reactions were heat-inactivated (95° C., 3 min) and analyzed by a metal dye detection, HPLC method (Mayr, “A novel metal-dye detection sysytem permits picomolar-range h.p.l.c. analysis of inositol polyphosphates from non-radioactively labelled cell or tissue specimens,” Biochem J 254: 585-591 (1988); Adelt et al., “Enzyme-assisted total synthesis of the optical antipodes D-myo-inositol 3,4,5-trisphosphate and D-myo-inositol 1,5,6-trisphosphate: aspects of their structure-activity relationship to biologically active inositol phosphates,” J Med Chem 42: 1262-1273 (1999)).
Activity of 3.4 ug of inositol 3,4,5,6-tetrakisphosphate 1-kinase was assayed for 4 hr. at 37° C. in 200 μl buffer containing 100 mM KCl, 20 mM HEPES pH 7.2, 5 mM ATP, 10 mM phosphocreatine, 6 mM MgSO4, 10 μg/ml creatine phosphokinase (Calbiochem), 0.3 mg/ml bovine serum albumin and 50 uM of either inositol 3,4,5-trisphosphate, 4,5,6-trisphosphate or inositol 3,5,6-trisphosphate. Reactions were heat-inactivated (95° C., 3 min) and analyzed by a metal dye detection, HPLC method.
[…] (Manassas, Va.) supplied the CFPAC-1 cells and T84 cells. Recombinant human Ins(3,4,5,6)P4 1-kinase was expressed in E. coli and purified (Yang et al., “Multitasking in Signal Transduction by a Promiscuous Human Ins(3,4,5,6)P4 1-Kinase/Ins(1,3,4)P3 5/6-Kinase,” Biochem J 351: 551-555 (2000)). Non-radiolabeled Ins(1,3,4)P3 and Ins(1,3,4,5,6)P5 were purchased from CellSignals Inc (Lexington, Ky.). The details of the synthesis of non-radiolabeled Ins(3,4,5)P3, Ins(3,5,6)P3, Ins(4,5,6)P3 and Ins(3,4,6)P3 (as sodium salts) will be published separately by S.-K. C. Ins(3,4,6)P3 was also prepared by a different synthetic route (Mills et al., “Synthesis of D- and L-myo-inositol 1,4,6-trisphosphate, regioisomers of a ubiquitous second messenger,” J Org Chem 61: 8980-8987 (1996)). [^3H]Ins(1,3,4,5,6)P5 was prepared as previously described (Zhang et al., “The Transcriptional Regulator, Arg82, is a Hybrid Kinase with both Monophosphoinositol- and Diphosphoinositol-Polyphosphate Synthase Activity,” FEBS Lett 494: 208-212 (2001)). [^3H]Ins(1,3,4)P3 was prepared from [^3H]Ins(1,3,4,5)P4 (New England Nuclear) using recombinant Ins(1,4,5)P3/Ins(1,3,4,5)P4 5-phosphatase (Erneux et al., “Production of recombinant human brain type I inositol-1,4,5-trisphosphate 5-phosphatase in Escherichia coli. Lack of phosphorylation by protein kinase C,” Eur J Biochem 234: 598-602 (1995)). [^3H]Ins(1,3,4)P3 was converted to [^3H]Ins(1,3,4,6)P4 using Ins(1,3,4)P3 6-kinase activity (Yang et al., “Multitasking in Signal Transduction by a Promiscuous Human Ins(3,4,5,6)P4 1-Kinase/Ins(1,3,4)P3 5/6-Kinase,” Biochem J 351: 551-555 (2000)). [^3H]Ins(3,4)P2 was prepared by alkaline phosphatase attack on [^3H]Ins(1,3,4)P3 in 20 mM glycine (pH 9.0 with KOH). [^3H]Ins(1,4)P2 was purchased from New England Nuclear.

[4] = molecular target: T2, Ins(1,3,4,5,6)P5 1-phosphatase activity of Ins(3,4,5,6)P4 kinase (Homo sapiens, UniProt Q13572); assay: Inositol phosphate phosphatase activity assay with ADP (HPLC); assay type: biochemical; details: 5 mM ADP, trace amounts of substrate
T2 construct: made in house; host or cells: E. coli
T2 sequence (Q13572 1-414): T1 sequence (Q13572 1-414)
Method: Ins(3,4,5,6)P4 kinase (0.4 μg) was incubated for 30 min in 100 μl phosphatase assay buffer (see Methods) either with (closed circles) or without (open circles) 5 mM ADP plus trace-amounts of either [^3H]Ins(1,3,4,5,6)P5 (panel A) [^3H]Ins(1,3,4,6)P4 (panel B), or [^3H]Ins(1,3,4,5)P4 (panel C). Samples were analyzed by HPLC (see Methods). The elution positions of Ins(1,3,4)P3 and Ins(3,4,5,6)P4 were verified with genuine standards. The elution positions of Ins(1,3,4,6)P4 (106 min, panel B) and of Ins(1,3,4,5)P4 (110 min, panel C) exclude these as products of InsP5 dephosphorylation (panel A).
Additional incubations were performed with 5 μM [^3H]Ins(1,3,4)P3 (approx. 1200 d.p.m.) plus either no Ins(1,3,4,5,6)P5 (open circles) or 5 μM non-radiolabeled Ins(1,3,4,5,6)P5 (closed circles); these reactions were assayed by HPLC (Synchropak Q100 column) and the InsP4 region of the chromatogram is shown in Panel B.
as §1

| Structure (SMILES) | effect on granule acidification [1] | effect on loss of H+ from the granules [2] | whether the enzyme phosphorylates the inositol phosphate [3] | product of ADP-dependent dephosphorylation [4] |
| --- | --- | --- | --- | --- |
| O=S(=O)(O)c1cc(N=C=S)ccc1C=Cc1ccc(N=C=S)cc1S(=O)(=O)O [DIDS, 4,4′-diisothiocyanostilbene-2,2′-disulfonic acid] | inhibited | inhibited | – | – |
| O=P(O)(O)O[C@@H]1C(O)[C@H](OP(=O)(O)O)[C@@H](OP(=O)(O)O)C(O)[C@H]1OP(=O)(O)O (stereo partly shown) [Ins(1,3,4,6)P4] | – | – | does not phosphorylate | dephosphorylated to Ins(1,3,4)P3 |
